What was measured:
[1] = target: Serine/threonine-protein kinase pim-1 (Homo sapiens) (UniProt P11309); assay: Inhibition of human full length PIM1 expressed in baculovirus assessed as substrate phosphorylation using fluorescence-labelled peptides as substrate at 0.06 uM after 90 mins by microfluidic peptide phosphorylation assay
[2] = target: Protein kinase C beta type (Homo sapiens) (UniProt P05771); assay: Inhibition of human truncated PKC beta1 expressed in baculovirus assessed as substrate phosphorylation using fluorescence-labelled peptides as substrate at 0.2 uM after 90 mins by microfluidic peptide phosphorylation assay
[3] = system: Tyrosine-protein kinase ABL1 (Homo sapiens), P00519 [T315I]; assay: Inhibition of human truncated ABL T315I mutant expressed in baculovirus assessed as substrate phosphorylation using fluorescence-labelled peptides as substrate at 0.2 uM after 90 mins by microfluidic peptide phosphorylation assay
[4] = target: T1, Serine/threonine-protein kinase Sgk1 (Homo sapiens) (UniProt O00141); assay: Inhibition of human truncated SGK1 expressed in baculovirus assessed as substrate phosphorylation using fluorescence-labelled peptides as substrate at 0.2 uM after 90 mins by microfluidic peptide phosphorylation assay
T1 sequence (whole entry): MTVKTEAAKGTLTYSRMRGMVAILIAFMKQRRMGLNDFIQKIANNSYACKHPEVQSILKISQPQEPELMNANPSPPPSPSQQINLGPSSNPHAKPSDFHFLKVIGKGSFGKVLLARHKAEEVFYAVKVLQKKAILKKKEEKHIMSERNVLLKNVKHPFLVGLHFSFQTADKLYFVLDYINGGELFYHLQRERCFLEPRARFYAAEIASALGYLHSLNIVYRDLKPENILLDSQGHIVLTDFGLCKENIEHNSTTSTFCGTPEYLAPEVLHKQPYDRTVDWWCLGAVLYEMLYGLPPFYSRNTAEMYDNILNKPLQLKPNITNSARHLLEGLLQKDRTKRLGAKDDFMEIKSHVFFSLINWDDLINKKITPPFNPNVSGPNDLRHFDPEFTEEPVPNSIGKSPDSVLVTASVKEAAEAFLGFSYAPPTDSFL

[5] = target: Protein kinase C eta type (Homo sapiens) (UniProt P24723); assay: Inhibition of human truncated PKC eta expressed in baculovirus assessed as substrate phosphorylation using fluorescence-labelled peptides as substrate at 2 uM after 90 mins by microfluidic peptide phosphorylation assay
[6] = target: Serine/threonine-protein kinase MARK2 (Homo sapiens) (UniProt Q7KZI7); assay: Inhibition of human full length MARK2 expressed in baculovirus assessed as substrate phosphorylation using fluorescence-labelled peptides as substrate at 2 uM after 90 mins by microfluidic peptide phosphorylation assay
[7] = target: RAC-alpha serine/threonine-protein kinase (Homo sapiens) (UniProt P31749); conditions: 0.1 uM
Description: Inhibition of human AKT1 catalytic domain expressed in baculovirus assessed as substrate phosphorylation using fluorescence-labelled peptides as substrate at 0.1 uM after 90 mins by microfluidic peptide phosphorylation assay

[8] = target: Dual specificity tyrosine-phosphorylation-regulated kinase 1A (Rattus norvegicus) (UniProt Q63470); assay: Inhibition of rat full length DYRK1a expressed in Escherichia coli cell assessed as substrate phosphorylation using fluorescence-labelled peptides as substrate at 95 uM after 90 mins by microfluidic peptide phosphorylation assay
[9] = target: Ribosomal protein S6 kinase alpha-4 (Homo sapiens) (UniProt O75676); assay: Inhibition of human full length MSK2 expressed in baculovirus assessed as substrate phosphorylation using fluorescence-labelled peptides as substrate at 95 uM after 90 mins by microfluidic peptide phosphorylation assay
[10] = target: T2, Serine/threonine-protein kinase Chk1 (Homo sapiens) (UniProt O14757); assay: Inhibition of human full length CHK1 expressed in baculovirus assessed as substrate phosphorylation using fluorescence-labelled peptides as substrate at 1000 uM after 90 mins by microfluidic peptide phosphorylation assay
T2 sequence (whole entry): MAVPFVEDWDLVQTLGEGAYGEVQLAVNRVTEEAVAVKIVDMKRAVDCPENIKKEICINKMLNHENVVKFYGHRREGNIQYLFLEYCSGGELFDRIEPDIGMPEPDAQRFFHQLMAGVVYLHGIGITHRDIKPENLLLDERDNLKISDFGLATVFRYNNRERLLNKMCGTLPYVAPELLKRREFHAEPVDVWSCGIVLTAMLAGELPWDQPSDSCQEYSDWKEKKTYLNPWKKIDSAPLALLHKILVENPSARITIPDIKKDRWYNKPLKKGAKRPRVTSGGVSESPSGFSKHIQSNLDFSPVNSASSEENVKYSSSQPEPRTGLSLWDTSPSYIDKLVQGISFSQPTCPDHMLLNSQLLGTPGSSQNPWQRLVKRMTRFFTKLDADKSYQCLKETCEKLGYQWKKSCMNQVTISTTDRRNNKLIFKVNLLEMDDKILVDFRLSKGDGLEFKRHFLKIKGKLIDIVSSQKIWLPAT

[11] = target: T3, Serine/threonine-protein kinase BRSK1 (Homo sapiens) (UniProt Q8TDC3); assay: Inhibition of human full length BRSK1 expressed in baculovirus assessed as substrate phosphorylation using fluorescence-labelled peptides as substrate at 70 uM after 90 mins by microfluidic peptide phosphorylation assay
T3 sequence (whole entry): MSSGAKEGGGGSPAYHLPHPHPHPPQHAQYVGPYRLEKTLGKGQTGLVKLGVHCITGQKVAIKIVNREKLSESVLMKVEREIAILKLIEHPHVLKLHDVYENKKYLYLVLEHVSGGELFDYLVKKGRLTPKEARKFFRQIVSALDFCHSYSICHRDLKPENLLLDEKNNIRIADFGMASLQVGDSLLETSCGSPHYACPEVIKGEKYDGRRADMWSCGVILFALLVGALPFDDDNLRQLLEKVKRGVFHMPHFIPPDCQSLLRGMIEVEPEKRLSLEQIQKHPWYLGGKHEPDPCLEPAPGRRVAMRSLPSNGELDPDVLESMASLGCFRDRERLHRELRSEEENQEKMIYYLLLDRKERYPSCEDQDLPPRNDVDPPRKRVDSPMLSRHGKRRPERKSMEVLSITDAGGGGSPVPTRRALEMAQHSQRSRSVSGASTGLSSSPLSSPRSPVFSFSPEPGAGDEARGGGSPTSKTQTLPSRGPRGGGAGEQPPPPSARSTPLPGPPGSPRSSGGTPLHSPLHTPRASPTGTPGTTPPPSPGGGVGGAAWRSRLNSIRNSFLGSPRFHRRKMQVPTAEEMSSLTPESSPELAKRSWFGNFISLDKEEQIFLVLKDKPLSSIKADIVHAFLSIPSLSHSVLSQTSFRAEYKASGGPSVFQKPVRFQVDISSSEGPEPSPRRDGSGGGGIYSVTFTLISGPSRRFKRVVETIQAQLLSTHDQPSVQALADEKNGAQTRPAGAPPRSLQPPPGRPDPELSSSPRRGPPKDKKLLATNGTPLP

[12] = target: Serine/threonine-protein kinase MARK2 (Homo sapiens) (UniProt Q7KZI7); assay: Inhibition of human full length MARK2 expressed in baculovirus assessed as substrate phosphorylation using fluorescence-labelled peptides as substrate at 70 uM after 90 mins by microfluidic peptide phosphorylation assay
[13] = target: Glycogen synthase kinase-3 beta (Homo sapiens) (UniProt P49841); assay: Inhibition of human full length GSK-3 beta expressed in baculovirus assessed as substrate phosphorylation using fluorescence-labelled peptides as substrate at 420 uM after 90 mins by microfluidic peptide phosphorylation assay
Glycogen synthase kinase-3 beta (Homo sapiens), sequence (P49841 whole entry, looked up): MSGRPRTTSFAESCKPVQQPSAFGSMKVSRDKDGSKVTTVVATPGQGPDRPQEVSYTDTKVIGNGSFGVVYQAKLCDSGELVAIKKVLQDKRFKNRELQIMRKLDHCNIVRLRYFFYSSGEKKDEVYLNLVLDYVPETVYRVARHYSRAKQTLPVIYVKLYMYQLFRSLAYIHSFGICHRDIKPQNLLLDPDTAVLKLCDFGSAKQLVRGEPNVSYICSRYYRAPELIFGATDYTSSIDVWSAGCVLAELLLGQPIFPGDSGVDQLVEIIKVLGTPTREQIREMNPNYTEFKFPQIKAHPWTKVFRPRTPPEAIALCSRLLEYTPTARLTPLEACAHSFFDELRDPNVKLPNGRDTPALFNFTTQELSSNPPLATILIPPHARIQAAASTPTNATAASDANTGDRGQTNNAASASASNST

Serine/threonine-protein kinase MARK2 (Homo sapiens), sequence (Q7KZI7 whole entry): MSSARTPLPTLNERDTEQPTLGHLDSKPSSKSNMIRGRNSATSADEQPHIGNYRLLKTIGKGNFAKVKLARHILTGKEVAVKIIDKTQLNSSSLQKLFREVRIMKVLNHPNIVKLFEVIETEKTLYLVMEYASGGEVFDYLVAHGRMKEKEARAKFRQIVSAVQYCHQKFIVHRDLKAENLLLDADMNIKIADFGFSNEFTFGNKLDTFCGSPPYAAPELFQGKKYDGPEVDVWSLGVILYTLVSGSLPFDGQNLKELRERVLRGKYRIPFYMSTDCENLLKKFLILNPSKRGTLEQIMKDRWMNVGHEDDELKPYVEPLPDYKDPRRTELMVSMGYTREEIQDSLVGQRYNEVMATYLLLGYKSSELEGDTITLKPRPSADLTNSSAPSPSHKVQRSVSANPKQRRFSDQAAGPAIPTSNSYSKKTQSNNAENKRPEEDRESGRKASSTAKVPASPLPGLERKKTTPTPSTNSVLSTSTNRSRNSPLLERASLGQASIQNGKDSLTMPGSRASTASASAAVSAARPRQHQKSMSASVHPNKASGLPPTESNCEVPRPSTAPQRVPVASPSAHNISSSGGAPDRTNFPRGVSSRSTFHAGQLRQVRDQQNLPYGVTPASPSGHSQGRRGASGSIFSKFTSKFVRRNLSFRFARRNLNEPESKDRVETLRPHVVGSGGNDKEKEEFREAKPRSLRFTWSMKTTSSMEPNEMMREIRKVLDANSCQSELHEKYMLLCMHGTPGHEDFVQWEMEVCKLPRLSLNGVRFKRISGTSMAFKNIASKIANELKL
Protein kinase C beta type (Homo sapiens), sequence (P05771 2-671 limits assumed): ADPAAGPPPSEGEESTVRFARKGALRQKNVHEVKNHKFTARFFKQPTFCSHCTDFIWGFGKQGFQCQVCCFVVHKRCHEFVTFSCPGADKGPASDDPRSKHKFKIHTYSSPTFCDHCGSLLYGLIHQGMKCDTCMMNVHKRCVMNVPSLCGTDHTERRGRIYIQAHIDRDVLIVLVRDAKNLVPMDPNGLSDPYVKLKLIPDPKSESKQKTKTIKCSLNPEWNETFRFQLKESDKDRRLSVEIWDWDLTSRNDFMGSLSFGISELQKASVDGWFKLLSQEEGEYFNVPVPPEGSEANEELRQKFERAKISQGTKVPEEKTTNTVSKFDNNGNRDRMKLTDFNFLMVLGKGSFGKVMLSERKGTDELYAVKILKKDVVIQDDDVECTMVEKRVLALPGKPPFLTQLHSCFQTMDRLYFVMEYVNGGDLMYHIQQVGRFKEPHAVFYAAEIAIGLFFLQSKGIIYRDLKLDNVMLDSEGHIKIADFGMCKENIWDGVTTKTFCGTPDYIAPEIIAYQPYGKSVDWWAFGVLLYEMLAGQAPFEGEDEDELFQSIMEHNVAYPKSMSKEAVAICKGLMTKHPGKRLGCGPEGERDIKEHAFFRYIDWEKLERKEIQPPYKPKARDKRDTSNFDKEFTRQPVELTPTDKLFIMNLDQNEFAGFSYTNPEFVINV
Protein kinase C eta type (Homo sapiens), sequence (P24723 whole entry, the tested form may be a part): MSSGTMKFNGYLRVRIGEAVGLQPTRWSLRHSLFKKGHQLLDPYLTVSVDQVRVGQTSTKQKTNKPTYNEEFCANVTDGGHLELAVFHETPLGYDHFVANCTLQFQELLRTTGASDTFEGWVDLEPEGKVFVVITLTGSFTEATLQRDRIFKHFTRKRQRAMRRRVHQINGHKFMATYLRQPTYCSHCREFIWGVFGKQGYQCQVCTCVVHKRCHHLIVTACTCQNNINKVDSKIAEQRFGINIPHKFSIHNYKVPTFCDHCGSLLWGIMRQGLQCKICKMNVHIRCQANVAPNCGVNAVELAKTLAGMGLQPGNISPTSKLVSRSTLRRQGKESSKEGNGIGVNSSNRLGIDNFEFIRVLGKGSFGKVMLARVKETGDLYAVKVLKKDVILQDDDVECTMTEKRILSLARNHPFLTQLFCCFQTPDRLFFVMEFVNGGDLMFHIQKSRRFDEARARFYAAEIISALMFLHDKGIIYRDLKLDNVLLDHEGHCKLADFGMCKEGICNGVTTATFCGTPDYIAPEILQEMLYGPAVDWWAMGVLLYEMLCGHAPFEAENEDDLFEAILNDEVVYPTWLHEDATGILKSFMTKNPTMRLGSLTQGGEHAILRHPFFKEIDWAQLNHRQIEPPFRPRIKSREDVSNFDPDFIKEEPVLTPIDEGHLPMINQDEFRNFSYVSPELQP
RAC-alpha serine/threonine-protein kinase (Homo sapiens), sequence (P31749 whole entry): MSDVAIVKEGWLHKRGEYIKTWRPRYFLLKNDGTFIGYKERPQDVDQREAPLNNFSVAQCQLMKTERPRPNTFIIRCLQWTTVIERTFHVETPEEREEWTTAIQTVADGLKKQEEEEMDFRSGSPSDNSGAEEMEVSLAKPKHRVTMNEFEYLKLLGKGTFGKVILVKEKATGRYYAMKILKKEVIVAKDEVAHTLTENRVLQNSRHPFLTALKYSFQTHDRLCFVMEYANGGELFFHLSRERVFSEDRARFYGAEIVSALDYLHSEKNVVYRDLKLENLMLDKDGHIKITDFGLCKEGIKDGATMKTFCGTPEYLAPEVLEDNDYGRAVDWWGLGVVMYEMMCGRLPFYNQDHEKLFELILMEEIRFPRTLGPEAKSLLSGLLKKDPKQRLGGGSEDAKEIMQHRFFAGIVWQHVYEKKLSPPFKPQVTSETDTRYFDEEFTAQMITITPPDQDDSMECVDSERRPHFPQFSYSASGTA
Ribosomal protein S6 kinase alpha-4 (Homo sapiens), sequence (O75676 whole entry, looked up): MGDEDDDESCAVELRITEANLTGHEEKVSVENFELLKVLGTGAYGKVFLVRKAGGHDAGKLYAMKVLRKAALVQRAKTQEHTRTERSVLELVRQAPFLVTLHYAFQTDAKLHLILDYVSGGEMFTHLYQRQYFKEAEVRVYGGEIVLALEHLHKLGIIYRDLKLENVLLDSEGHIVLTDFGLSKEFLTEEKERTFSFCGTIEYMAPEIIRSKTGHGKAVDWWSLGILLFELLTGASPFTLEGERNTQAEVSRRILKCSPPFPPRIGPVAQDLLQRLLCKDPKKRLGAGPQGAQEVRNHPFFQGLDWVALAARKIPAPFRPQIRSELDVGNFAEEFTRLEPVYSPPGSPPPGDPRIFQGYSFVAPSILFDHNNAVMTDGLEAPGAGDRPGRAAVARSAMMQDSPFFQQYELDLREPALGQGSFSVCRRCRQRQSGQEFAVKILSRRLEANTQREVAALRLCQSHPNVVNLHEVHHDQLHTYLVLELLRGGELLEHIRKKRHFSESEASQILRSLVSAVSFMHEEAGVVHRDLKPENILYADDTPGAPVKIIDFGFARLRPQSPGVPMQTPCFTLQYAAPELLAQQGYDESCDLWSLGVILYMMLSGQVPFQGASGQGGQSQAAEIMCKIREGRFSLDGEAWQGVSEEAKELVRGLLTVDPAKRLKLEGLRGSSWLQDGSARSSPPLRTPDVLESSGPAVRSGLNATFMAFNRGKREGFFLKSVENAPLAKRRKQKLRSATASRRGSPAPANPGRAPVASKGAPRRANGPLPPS
Serine/threonine-protein kinase pim-1 (Homo sapiens), sequence (P11309 whole entry, looked up, the tested form may be a part): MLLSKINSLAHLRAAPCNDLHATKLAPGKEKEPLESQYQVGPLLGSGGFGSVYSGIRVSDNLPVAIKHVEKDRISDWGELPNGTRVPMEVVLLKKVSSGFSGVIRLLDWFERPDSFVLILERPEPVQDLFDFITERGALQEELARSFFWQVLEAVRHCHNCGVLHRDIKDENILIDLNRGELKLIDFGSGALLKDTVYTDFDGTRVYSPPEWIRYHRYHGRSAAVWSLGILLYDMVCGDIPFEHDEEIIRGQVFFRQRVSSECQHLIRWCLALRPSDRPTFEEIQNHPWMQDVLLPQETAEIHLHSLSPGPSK

`NC1(Cc2ccc(Cl)cc2)CCN(c2ncnc3[nH]ccc23)CC1` showed an inhibition [1] of 0%.
With `Clc1ccc(C2(c3ccc(-c4ncnc5[nH]cnc45)cc3)CCNCC2)cc1` the inhibition [2] was 53%, the inhibition [3] was 0% and the inhibition [4] was 33%.
In the case of `NC1CCN(c2ncnc3[nH]ccc23)CC1`, the inhibition [5] is reported as 56.5% and the inhibition [6] is reported as 0%.
`C[C@H](CN(C)C)Oc1nc(Nc2cc3cccc(Cl)c3cn2)cnc1C#N` was tested, and the inhibition [7] was 0%.
In the case of `NCCc1ccc(-c2ncnc3[nH]cnc23)cc1`, the inhibition [8] is reported as 79% and the inhibition [9] is reported as 54%.
Work on `c1cnc2[nH]ccc2c1` yielded an inhibition [10] of 52%.
Molecule `CNCc1ccc(-c2ncnc3[nH]cnc23)cc1` has an inhibition [11] of 29.5% and an inhibition [12] of 61%.
`c1nc(N2CCOCC2)c2nc[nH]c2n1` was tested, and the inhibition [13] was 90%.

From ChEMBL document CHEMBL3132769, “Fragment growing to retain or alter the selectivity of anchored kinase hinge-binding fragments” (Medchemcomm, 2014)
